Like-named read-outs stand apart in the source and are kept apart here.
How the values were obtained:
[1] = test system: GABL; experiment: GABL biochallenge test of preserved polymer emulsions (streak plate / RABIT), inoculations passed; type: cell-based, Gluconoacetobacter liquefaciens; conditions: for preservative efficacy against GABL (in words): dosages similar to 200 ppm, failing immediately after the initial GABL inoculation; for Inoculations Passed: PVOH-stabilized VAE emulsion, Tg 0 °C, <1000 ppm vinyl acetate; for preservative quality against GABL compared with cationic compounds (in words): common industrial biocides, CIT/MIT limited to 50 ppm, DBNPA to 100 ppm; for efficacy against GABL (in words): even at doses of 450 and 500 ppm
Description: GABL Inoculum Preparation
A recently isolated culture of GABL was grown on potato dextrose agar slants by inoculating the agar surface. The potato dextrose agar slants were incubated for 48-72 hours at 25° C. After this incubation period, GABL cells were harvested using quarter strength Ringers solution to wash the GABL colonies off of the agar surface. The washings from each slant were combined into one sterile, Erlenmeyer flask. The number of slants and the amount of quarter strength Ringers solution used to wash off the GABL colonies was adjusted during the procedure to obtain a final microbial viable count in the range of 10^8-10^10 CFU/mL.
Rapid Automated Bacterial Impedance Technique (RABIT): supplied by Microbiology International, manufactured by Don Whitley Scientific, Ltd.
RABIT utilizes the principal of impedance microbiology to detect and assess microbial activity in a given sample. Using the RABIT, microbial metabolism is monitored by measuring the amount of carbon dioxide produced by actively respiring microorganisms. The electrodes in the RABIT test cells are partially covered with alkaline agar containing potassium hydroxide. As inoculated test samples are monitored on the RABIT, carbon dioxide produced from microbial metabolism is absorbed by the alkaline agar resulting in a change in conductivity. Conductivity is monitored with time and the time to reach a pre-specified rate of reduction in conductivity is termed the time to detection (TTD). Therefore, the shorter the TTD, the higher the number of microorganisms present. Failure can be defined as three successive decreases in conductivity equal to or greater than a pre-specified value (−10 microSiemens is recommended by the manufacturer) at any time during the 72 hour RABIT monitoring period. Alternatively, failure can be defined as a pre-specified total change in conductivity.
Biochallenge Test Procedure
Samples (50 g each) of each test emulsion containing a test antimicrobial agent were inoculated with 1.0 mL of the GABL inoculum. After mixing well, the samples were then placed in a 30° C. incubator. After 1, 2, and 6 days of incubation each sample was streak plated onto potato dextrose agar to assess the level of surviving GABL microorganisms. The potato dextrose agar plates were incubated at 25° C. for 48-72 hours before assessing the growth. On the seventh day of incubation, each test emulsion sample was inoculated again with a freshly prepared GABL inoculum, mixed well, then placed back into the incubator. The samples were again streak plated onto potato dextrose agar after incubating for 1, 2, and 6 days since the second inoculation. On the fourteenth day after the test was initiated, the test emulsions were inoculated a third time with another freshly prepared GABL inoculum and then placed back into the incubator. The samples were again streak plated onto potato dextrose agar after 1, 2, 6, and 13 days of incubation since the third inoculation to assess surviving microorganisms. Test failure is defined as a microbial viable count >300 CFU/10 μL observed from the potato dextrose agar streak plate assessments.
Biochallenge Test Procedure Via the RABIT
A small amount of a microbial nutrient was added to each emulsion test sample (50 g) containing a test antimicrobial agent. The resulting samples were then inoculated with 1.0 mL of the GABL inoculum. After mixing well, an aliquot (5 g) of each test sample was placed into separate RABIT indirect conductivity tubes. The indirect conductivity tubes were then placed into the RABIT incubator modules set at 30° C. and the conductivity changes monitored for up to 72 hours. The remainder of each test sample was stored in a 30° C. incubator during the RABIT monitoring period. At the completion of the RABIT monitoring period, the aliquot samples were placed back into their respective sample containers. Each test sample was then re-inoculated with a freshly prepared GABL inoculum. […]

[2] = test system: mixed bacterial pool; type: cell-based; conditions: PVOH-stabilized VAE emulsion Tg 0, <1000 ppm vinyl acetate
Description: The preservative efficacy of several cationic compounds in a poly(vinyl alcohol)-stabilized VAE copolymer emulsion (Tg=0) containing less than 1000 ppm vinyl acetate was assessed according to the following procedure:
Aeromonas hydrophilia, Alcaligenes faecalis, Corynebacterium ammoniagenes, Enterobacter aerogenes, Escherichia coli, Klebsiella pneumoniae, Pseudomonas aeruginosa, Proteus vulgaris, Providencia rettgeri, Pseudomonas stutzeri, Shewanella putrefaciens, Serratia liquefaciens, Acinetobacter baumannii, Burkholderia cepacia, Chryseobacterium meningosepticum, Sphingobacterium spiritivorum, Ralstonia pickettii, and GABL.
Mixed Bacterial Pool Inoculum Preparation
Each bacterial culture was individually grown on nutrient agar slants, except GABL was grown on potato dextrose agar slants, by inoculating the agar surfaces. The nutrient agar slants were incubated for 24-48 hours at 30° C. and the potato dextrose agar slants were incubated for 48-72 hours at 25° C. After this incubation period, the cells were harvested using quarter strength Ringers solution to wash the bacterial colonies off the agar surface. The washings from all of the slants were combined into one sterile, Erlenmeyer flask. The number of slants and the amount of Ringers Solution used to wash off the bacterial colonies is adjusted during the procedure to obtain a final mixed microbial viable count in the range of 10^8-10^10 CFU/mL.
Bacterial Biochallenge Test Procedure
The RABIT procedures were followed as described in Example 1, except the mixed bacterial pool inoculum was used to inoculate the test samples instead of the GABL inoculum.

## [H]/N=C(\N/C(=N/[H])NCCCCCCNC(=N)NC(=N)Nc1ccc(Cl)cc1)Nc1ccc(Cl)cc1 [chlorhexidine, reference compound]
[1]
  preservative efficacy against GABL (in words): ineffective

## N#CC(Br)(Br)C(N)=O [DBNPA, 2,2-dibromo-3-nitrilo-propionamide, reference compound]
[1]; biocide dosage 100 ppm active
  Inoculations Passed: 0
[1]
  preservative quality against GABL compared with cationic compounds (in words): inferior preservatives
  efficacy against GABL (in words): ineffective

## CCCCCCCCCCCCCCCC[N+](C)(C)C.[Br-] [CTAB, cetyltrimethylammonium bromide]
[1]; biocide dosage 300 ppm active
  Inoculations Passed: 1
[1]
  preservative efficacy against GABL (in words): ineffective

## Benzalkonium chloride [TPI ® 1717]
[1]; biocide dosage 200 ppm active
  Inoculations Passed: 0
[1]; biocide dosage 300 ppm active
  Inoculations Passed: 0

## Tetrakis(hydroxymethyl) phosphonium sulfate [Tolcide ® PS]
[1]; biocide dosage 500 ppm active
  Inoculations Passed: 0

## N#CCCC(Br)(C#N)CBr (stereo not shown) [DBDCB, 1,2-dibromo-2,4-dicyanobutane, reference compound]
[1]; biocide dosage 450 ppm active
  Inoculations Passed: 0
[1]
  preservative quality against GABL compared with cationic compounds (in words): inferior preservatives
  efficacy against GABL (in words): ineffective

## CCCCCCCCCC[N+](C)(C)CCCCCCCCCC.[Cl-] [BTC ® 1010, Didecyldimethylammonium chloride]
[1]; biocide dosage 200 ppm active, listed as BTC 1010
  Inoculations Passed: 3

## CC(=O)O.CC(=O)O.NC(=N\CCCCCC/N=C(N)/N=C(\N)Nc1ccc(Cl)cc1)/N=C(\N)Nc1ccc(Cl)cc1 [Chlorhexidine diacetate, reference compound]
[1]; biocide dosage 400 ppm active
  Inoculations Passed: 0

## N=C(NCCCCCCNC(=N)NC(=N)Nc1ccc(Cl)cc1)NC(=N)Nc1ccc(Cl)cc1.O=C(O)[C@H](O)[C@@H](O)[C@H](O)[C@H](O)CO.O=C(O)[C@H](O)[C@@H](O)[C@H](O)[C@H](O)CO [Chlorhexidine digluconate, reference compound]
[1]; biocide dosage 250 ppm active
  Inoculations Passed: 0

## CCCCCCCCCCCCCCCC[n+]1ccccc1 [CPC, cetylpyridinium chloride, reference compound]
[2]; active biocide dosage 300 ppm
  Inoculations Passed: 5
[2]; active biocide dosage 400 ppm
  Inoculations Passed: 7
[1]; biocide dosage 100 ppm active
  Inoculations Passed: 0
[1]; biocide dosage 250 ppm active
  Inoculations Passed: 2
[1]; biocide dosage 300 ppm active
  Inoculations Passed: 5

## NCC(=O)O [Glycine]
[1]; biocide dosage 500 ppm active
  Inoculations Passed: 0

## CCCCCCCCCC[N+](C)(C)CCCCCCCCCC.[Cl-] [TPI ® 1716, Didecyldimethylammonium chloride]
[1]; biocide dosage 100 ppm active
  Inoculations Passed: 0
[1]; biocide dosage 200 ppm active, listed as TPI 1716
  Inoculations Passed: 2
[1]; biocide dosage 300 ppm active
  Inoculations Passed: ≧5

## O=CCCCC=O [Glutaraldehyde, reference compound]
[1]; biocide dosage 500 ppm active
  Inoculations Passed: 0
[1]
  preservative quality against GABL compared with cationic compounds (in words): inferior preservatives
  efficacy against GABL (in words): ineffective

## CC(C)[C@H](N)C(=O)O [Valine]
[1]; biocide dosage 1000 ppm active
  Inoculations Passed: 0

Source: patent US6890969B2, “Polymer emulsion preservation using cationic compounds” (Air Products Polymers, L.P., priority 2000, dated 2005)
